The record followed here is patent US20050256034A1, “Dioxolane analogs for improved inter-cellular delivery” (priority 2000, published 2005).

Read-outs that look alike come from different tables or passages of the source.

A short description of this test: 3H-Thymidine Incorporation Assay (24 hr drug, wash, another 48 hr; 72 hr assay). It is filed as cell-based. The note with it: for Factor (Resistance Factor = Ratio of dCK- on Wild-type CCRF-CEM) / Resistance Factor = Ratio of dCK- on Wild-type CCRF-CEM: ratio of IC50 CEM/dCK- to IC50 CCRF-CEM; for Factor (Resistance Factor = Ratio of dCK- on Wild-type CCRF-CEM): 24 h exposure; for IC50: 24 hr exposure to drug, wash, another 48 hr. (In general: Dividing cells build labelled thymidine or BrdU into new DNA.)

[1] abbreviates: CCRF-CEM, read-out: IC50 (3H-TdR incorporation at 72 hr) CCRF-CEM 24 h, CCRF-CEM T-cell leukemia.
Where [2] appears, read: CCRF-CEM, read-out: IC50 (3H-TdR incorporation at 72 hr) CEM/dCK- 24 h, CEM/dCK- (CCRF-CEM deoxycytidine kinase-deficient).
[3] abbreviates: MCF7, read-out: IC50 (3H-TdR incorporation at 72 hr) MCF-7 24 h, MCF-7 human breast carcinoma.
Where [4] appears, read: NCI-H460, read-out: IC50 (3H-TdR incorporation at 72 hr) H-460 24 h, H-460 human lung carcinoma.
The mark [5] stands for this setting: SF-268, read-out: IC50 (3H-TdR incorporation at 72 hr) SF-268 24 h, SF-268 human central nervous system tumor.
The mark [6] stands for this setting: read-out: IC50 (3H-TdR incorporation at 72 hr) H-460 24 h, H-460 human lung carcinoma.
Setting [7] is: read-out: IC50 (3H-TdR incorporation at 72 hr) MCF-7 24 h, MCF-7 human breast carcinoma.

For `Nc1ccn([C@@H]2CO[C@H](COC(=S)Oc3ccccc3)O2)c(=O)n1` [Compound 147, THIOCARBONIC ACID O-[4(S)-(4′-A- MINO-2′-OXO-2H-PYRI- MIDIN-1′-YL)-[1,3]DI- OXOLAN-2(S)-YL- METHYL]ESTER O-PHENYL ESTER], the “Factor (Resistance Factor = Ratio of dCK- on Wild-type CCRF-CEM)” value is reported as >4 000.
The same measure, in the same setting: under `CC(=O)OCC1OC2OC(C)(OC[C@H]3OC[C@@H](n4ccc(NC(=O)OCc5ccccc5)nc4=O)O3)OC2C(OC(C)=O)C1OC(C)=O` (some centres unmarked) [Compound 148, Acetic acid 6-acetoxy-5-acetoxy-methyl-2-[4-(4-benzyl-oxycarbonylamino-2-ox-o-2H-pyrimidin-1-yl)-[1,3]di-oxolan-2-ylmeth-oxy]-2-methyl-tetra-hydro-[1,3]di-oxolo[4,5-b]py-ran-7-yl ester] stands 4; under `CC(C(=O)OC[C@H]1OC[C@@H](n2ccc(N)nc2=O)O1)C(c1ccccc1)c1ccccc1` (stereo partly drawn) [Compound 157, (2S,4S)-(3″-DIPHENYL-2″-METHYL- PROPIOXYMETHYL)-4-CYTO- SIN-1′-YL-1,3-DI- OXOLANE], > 8330.
As for `CCOC(OCC)(OC[C@H]1OC[C@@H](n2ccc(N)nc2=O)O1)c1ccccc1` [Compound 170, 4-AMINO-1-[2-(DIETHOXY-PHE- NYL-METHOXYMETHYL)-[1,3]DI- OXOLAN-4-YL]-1H-PYRI- MIDIN-2-ONE], the “Resistance Factor = Ratio of dCK- on Wild-type CCRF-CEM” value is >476. Moreover, the IC50 under setting [1] came to 210 nM. Also, under setting [2], the IC50 is > 100000 nM. Besides, under setting [3], the IC50 turned out to be 490 nM. Further, the IC50 under setting [4] turned out to be 630 nM. Moreover, the IC50 under setting [5] amounted to 1000 nM.
With `COC(OC)(OC)OC[C@H]1OC[C@@H](n2ccc(N)nc2=O)O1` [Compound 177, 4-AMINO-1-(2-TRI- METHOXYMETHOXYMETHYL-[1,3]DI- OXOLAN-4-YL)-1H-PYRI- MIDIN-2-ONE], the Resistance Factor = Ratio of dCK- on Wild-type CCRF-CEM is > 1050.
For the molecule `O=C(Nc1ccn([C@@H]2CO[C@H](COC(=O)OCc3ccc([N+](=O)[O-])cc3)O2)c(=O)n1)OCc1ccc([N+](=O)[O-])cc1` [Compound 181, CARBONIC ACID 4-NITRO-BENZYL ESTER 4-[4-(4-NITRO-BENZYL- OXYCARBONYLAMINO)-2-OX- O-2H-PYRIMIDIN-1-YL]-[1,3]DI- OXOLAN-2-YLMETHYL ESTER], the “Resistance Factor = Ratio of dCK- on Wild-type CCRF-CEM” value was >2700. Also, the IC50 under setting [1] stood at 37 nM. Besides, the IC50 under setting [2] was > 100000 nM. Besides, the IC50 under setting [3] amounted to 490 nM. Further, the IC50 under setting [4] came to 140 nM. Besides, the IC50 under setting [5] was 170 nM.
For `Nc1ccn([C@@H]2CO[C@H](COC(=O)c3ccc(Cl)c(Cl)c3)O2)c(=O)n1` [Compound 187, 3,4-DICHLORO-BENZOIC ACID 4-(4-AMINO-2-OXO-2H-PYRI- MIDIN-1-YL)-[1,3]DI- OXOLAN-2-YL METHYL ESTER], the IC50 runs as follows: under setting [4], 1.4 nM; (read-out: IC50 (3H-TdR incorporation at 72 hr) CCRF-CEM 24 h, CCRF-CEM T-cell leukemia) 1.6 nM; under setting [6], 1.1 nM; under setting [7], 5.1 nM.
`Nc1ccn([C@@H]2CO[C@H](COC(=O)c3ccc(C(F)(F)F)cc3)O2)c(=O)n1` [Compound 189, 4-TRIFLUOROMETHYL-BENZOIC ACID 4-(4-A- MINO-2-OXO-2H-PYRI- MIDIN-1-YL)-[1,3]DI- OXOLAN-2-YL METHYL ESTER]: the IC50 came out at 3.3 nM under setting [3], 1.2 nM under setting [4], 0.68 nM under setting [6] and 3.7 nM under setting [7].
Consider `Nc1ccn([C@@H]2CO[C@H](COC(=O)c3ccccc3F)O2)c(=O)n1` [Compound 190, 2-FLUORO-BENZOIC ACID 4-(4-AMINO-2-OXO-2H-PYRI- MIDIN-1-YL)-[1,3]DI- OXOLAN-2-YL METHYL ESTER], for which the IC50 is, setting by setting: under setting [2], 9800 nM; under setting [3], 27 nM; under setting [6], 3.9 nM; under setting [7], 16 nM.
With `CC(C)(C)OC(=O)NCCCCCC(=O)Nc1ccn([C@@H]2CO[C@H](CO)O2)c(=O)n1` [Compound 193, {5-[1-(2-HYDROXYMETHYL-[1,3]DI- OXOLAN-4-YL)-2-OX- O-1,2-DIHYDRO-PYRI- MIDIN-4-YLCARBA- MOYL]-PENTYL}-CARBAMIC ACID TERT-BUTYL ESTER], the Resistance Factor = Ratio of dCK- on Wild-type CCRF-CEM is > 1700.
